Reference: article PMC11562385 (RSC Chemical Biology, 2024)
Like-named read-outs stand apart in the source and are kept apart here. Each block holds one compound with its values, some of them ahead of it. Square brackets hold non-standard residues; d marks the D form. Peptide text beside a SMILES is read from it. * marks the point of attachment. Methacryloyl = C=C(C)C(=O)*; Dab = NCC[C@H](N)C(=O)O; Dap = NC[C@H](N)C(=O)O; Acryloyl = C=CC(=O)*

Columns and labels:
[1] = molecular target: T1, PD1:PDL1 interaction (Homo sapiens, UniProt Q15116); assay: PD1/PDL1 immunoblocking ELISA (BPS Bioscience kit cat # 72005); assay type: binding
T1 construct: purchased BPS Bioscience 72005
Protocol: Original loops with Phe/Trp and their Gly-derived analogs. Experimental EC50 values from inhibitory dose–response curves. Error bars indicate the mean ± SD, (n = 3). […]
SDS -Pages, buffers, and stain were purchased from Fisher
8. Immunoblocking ELISA Assay
Peptide inhibitor stock solutions were prepared in the concentration range of approximately 1-5 mM in DMSO. […]
plate was then washed and blocked with blocking buffer for 1 h at room temperature. Inhibitor solutions (ranging from 0.01 to 100 μM) and a blank solution (DMSO/PBS buffer) were added to designated wells. To initiate the […]
inhibitor solutions. After a 2 h incubation at room temperature, the plate was washed and blocked again for 10 min. Streptavidin-HRP (diluted at 1 : 1000) was added and incubated for 1 h at room temperature with gentle shaking. The plate was washed and blocked once more for 10 min. ELISA ECL substrate was added, and the resulting chemoluminescence was immediately measured in a luminometer (FLUOstar OPTIMA, BMG Labtech).
The luminescence value of the blank was subtracted from all readings according to the manufacturer's

[2] = Variable-temperature CD melting curves (CD-melts at 228±2 nm and 202±2 nm), individual and global two-state fits; assay type: physicochemical
Protocol: Recently, our laboratory brought forward a novel synthetic technology for the synthesis of acyclic β-hairpins with long loops. […] To compare hairpins’ stability, both regular (R) and bulged (B) scaffolds were crafted around a flexible 10-residue model loop (G4K2G4) and analyzed by CD (circular dichroism) spectroscopy (Fig. 2(A), see ESI, ^† Table S5). The […] structure of these model scaffolds 1avs.2a in solution were recorded in the far-UV CD spectra. […] The CD-exciton intensity was therefore used as a global probe to determine the %-folding of ADAPTins and to obtain melting curves corresponding to the hairpin fraying mechanism upon a gradual increase of temperature (0 to 95 °C).[68] […] In addition, NMR (nuclear magnetic resonance) chemical shifts were measured to determine variations in backbone […] structures (Fig. 2(B)). Secondary chemical shift deviations (CSDs) were calculated against random coil values[69] for both ADAPTin scaffolds 1vs.2 to verify that the hairpins were folded and if any variation of conformational rigidity exist within the loops. […]
Mass Spectrometer coupled to a Vanquish™ Neo UHPLC System (Thermo Scientific™). Peptide solutions for circular dichroism (CD) were prepared within a concentration range of 15-120 µM in a phosphate buffer (15 mM, […]
measured accurately using a JASCO V-670 spectrophotometer relied on the combined molar absorptivity of Trp (ε280 = 5580 M-1 .cm-1 per Trp) and Tyr (ε280 = 1280 M-1 .cm-1 per Tyr) to determine each sample's concentration.
CD spectra were recorded using a JASCO J-810 Spectropolarimeter equipped with a temperature controller module JASCO PFD-425S. Raw CD melting curves were processed in SpectraGryph, and fitting was performed in OriginPro 9.0 (Originlab Corporation, U.S.A.). NMR samples were prepared by reconstituting freeze -dried peptides (~ 1-5 mg) in mixture of water and DMSO -d6 (90:10 v/v) using 2,2-dimethyl-2-silapentane-5-sulfonate (DSS) as internal standard for chemical shifts (0 ppm), and spectra were recorded at 291 K (18 °C) unless otherwise stated. Chemical shifts ( δ) are reported in ppm. Samples for NMR experiments were prepared in a range of 3-10 mM of peptide in solution unless otherwise noted.

[3] = ELISA, mean of three independent experiments, read-out: EC50 Value
[4] = xlsx sheet of the peptide, individual fit of CD-melt

T1 sequence (Q15116 25-167 limits assumed): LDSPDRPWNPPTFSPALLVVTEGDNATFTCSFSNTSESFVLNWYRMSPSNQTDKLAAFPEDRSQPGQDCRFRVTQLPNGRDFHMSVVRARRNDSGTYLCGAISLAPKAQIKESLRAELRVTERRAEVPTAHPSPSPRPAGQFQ

Compound: C=CC(=O)NCC[C@H](NC(=O)[C@H](CC(=O)O)NC(=O)[C@H](Cc1ccccc1)NC(=O)[C@H](CCCNC(=N)N)NC(=O)[C@H](Cc1ccc(O)cc1)NC(=O)[C@H](CC(=O)O)NC(=O)[C@H](CCCNC(=N)N)NC(=O)[C@H](CCCNC(=N)N)NC(=O)[C@H](C)NC(=O)[C@@H](NC(=O)[C@H](Cc1c[nH]c2ccccc12)NC(=O)[C@@H](N)CCCNC(=N)N)C(C)C)C(=O)NCC(=O)N[C@@H](Cc1ccccc1)C(=O)N[C@@H](CC(=O)O)C(=O)N[C@@H](Cc1ccc(O)cc1)C(=O)N[C@@H](Cc1c[nH]c2ccccc12)C(=O)N[C@H](C(=O)N[C@@H](Cc1c[nH]c2ccccc12)C(=O)N[C@@H](CCC(=O)O)C(=O)O)C(C)C [2ca] (H-RWVARRDYRFD[Dab](Acryloyl)GFDYWVWE-OH)
EC50 [1, 3]: 5220 nM

Compound: C=CC(=O)NC[C@H](NC(=O)[C@H](CC(=O)O)NC(=O)[C@H](Cc1ccccc1)NC(=O)[C@H](CCCNC(=N)N)NC(=O)[C@H](Cc1ccc(O)cc1)NC(=O)[C@H](CC(=O)O)NC(=O)[C@H](CCCNC(=N)N)NC(=O)[C@H](CCCNC(=N)N)NC(=O)[C@H](C)NC(=O)[C@@H](NC(=O)[C@H](Cc1c[nH]c2ccccc12)NC(=O)[C@@H](N)CCCNC(=N)N)C(C)C)C(=O)NCC(=O)N[C@@H](Cc1ccccc1)C(=O)N[C@@H](CC(=O)O)C(=O)N[C@@H](Cc1ccc(O)cc1)C(=O)N[C@@H](Cc1c[nH]c2ccccc12)C(=O)N[C@H](C(=O)N[C@@H](Cc1c[nH]c2ccccc12)C(=O)N[C@@H](CCC(=O)O)C(=O)O)C(C)C [2cb] (H-RWVARRDYRFD[Dap](Acryloyl)GFDYWVWE-OH)
EC50 [1, 3]: 3980 nM

Compound: C=C(C)C(=O)NCC[C@H](NC(=O)[C@H](CC(=O)O)NC(=O)[C@H](Cc1ccccc1)NC(=O)[C@H](CCCNC(=N)N)NC(=O)[C@H](Cc1ccc(O)cc1)NC(=O)[C@H](CC(=O)O)NC(=O)[C@H](CCCNC(=N)N)NC(=O)[C@H](CCCNC(=N)N)NC(=O)[C@H](C)NC(=O)[C@@H](NC(=O)[C@H](Cc1c[nH]c2ccccc12)NC(=O)[C@@H](N)CCCNC(=N)N)C(C)C)C(=O)NCC(=O)N[C@@H](Cc1ccccc1)C(=O)N[C@@H](CC(=O)O)C(=O)N[C@@H](Cc1ccc(O)cc1)C(=O)N[C@@H](Cc1c[nH]c2ccccc12)C(=O)N[C@H](C(=O)N[C@@H](Cc1c[nH]c2ccccc12)C(=O)N[C@@H](CCC(=O)O)C(=O)O)C(C)C [2cd] (H-RWVARRDYRFD[Dab](Methacryloyl)GFDYWVWE-OH)
EC50 [1, 3]: 9870 nM

Compound: CSCC[C@H](NC(=O)[C@H](CC(=O)O)NC(=O)CNC(=O)[C@H](CCCNC(=N)N)NC(=O)[C@H](Cc1ccc(O)cc1)NC(=O)[C@H](CC(=O)O)NC(=O)[C@H](CCCNC(=N)N)NC(=O)[C@H](CCCNC(=N)N)NC(=O)[C@H](C)NC(=O)[C@@H](NC(=O)[C@H](Cc1c[nH]c2ccccc12)NC(=O)[C@@H](N)CCCNC(=N)N)C(C)C)C(=O)NCC(=O)N[C@@H](Cc1ccccc1)C(=O)N[C@@H](CC(=O)O)C(=O)N[C@@H](Cc1ccc(O)cc1)C(=O)N[C@@H](Cc1c[nH]c2ccccc12)C(=O)N[C@@H](Cc1cnc[nH]1)C(=O)N[C@@H](Cc1c[nH]c2ccccc12)C(=O)N[C@@H](CCC(=O)O)C(=O)O [2d] (H-RWVARRDYRGDMGFDYWHWE-OH)
EC50 [1, 3]: 5650 nM
EC50 ([1]; [PD1•PDL1] blocking EC50, Fig. 3B, cut-off bars of congeneric pairs (Phe/Trp vs Gly), n = 3): > 5000 nM

Compound: CSCC[C@H](NC(=O)[C@H](CC(=O)O)NC(=O)[C@H](Cc1ccccc1)NC(=O)[C@H](CCCNC(=N)N)NC(=O)[C@H](Cc1ccc(O)cc1)NC(=O)[C@H](CC(=O)O)NC(=O)[C@H](CCCNC(=N)N)NC(=O)[C@H](CCCNC(=N)N)NC(=O)[C@H](C)NC(=O)[C@@H](NC(=O)[C@H](Cc1c[nH]c2ccccc12)NC(=O)[C@@H](N)CCCNC(=N)N)C(C)C)C(=O)NCC(=O)N[C@@H](Cc1ccccc1)C(=O)N[C@@H](CC(=O)O)C(=O)N[C@@H](Cc1ccc(O)cc1)C(=O)N[C@@H](Cc1c[nH]c2ccccc12)C(=O)N[C@@H](Cc1cnc[nH]1)C(=O)N[C@@H](Cc1c[nH]c2ccccc12)C(=O)N[C@@H](CCC(=O)O)C(=O)O [2e] (H-RWVARRDYRFDMGFDYWHWE-OH)
EC50 [1, 3]: 586 nM

Compound: RWVA-RGGGGKKGGFD-YWVWE [2a, bulged (B) β-hairpin model scaffold]
ΔGF0 ([2]; CD-melt at 228±2 nm, individual two-state Gibbs-Helmholtz fit (Origin 9.0), 0-95 °C, phosphate buffer 15 mM pH 6.5 ± MeOH): -0.90 ± 0.006 kcal/mol
Tm ([2]; Table S5, individual fit, 228±2 nm): 44.8 oC
Hairpin %-fold 291K ([2]; Table S5, individual fit, 291 K): 87 ± 1%
Hairpin %-fold 310K ([2]; Table S5, individual fit, 310 K): 66 ± 1%
-TΔSF0 ([2]; as E16): 9.87 ± 0.1 kcal/mol
ΔCpF0 ([2]; as E16): -372 ± 10 cal.deg-1.mol-1
ΔHF0 ([2]; as E16): -10.8 ± 0.1 kcal/mol
melting temperature (TM) upshift vs regular hairpin 1a ([2]; calculated from CD-melts): about 10 °C
DHm, fitted value from OriginPro [2, 4]: -18.1854 kcal/mol
Tm, fitted value from OriginPro [2, 4]: 317.92 K

Results, then the compound that gave them:

EC50 [1, 3]: 78 nM
Compound: CSCC[C@H](NC(=O)[C@H](CC(=O)O)NC(=O)[C@H](Cc1ccccc1)NC(=O)[C@H](CCCNC(=N)N)NC(=O)[C@H](Cc1ccc(O)cc1)NC(=O)[C@H](CC(=O)O)NC(=O)[C@H](CCCNC(=N)N)NC(=O)[C@H](CCCNC(=N)N)NC(=O)[C@H](CCCCN)NC(=O)[C@@H](NC(=O)[C@H](Cc1c[nH]c2ccccc12)NC(=O)[C@@H](N)CCCNC(=N)N)C(C)C)C(=O)NCC(=O)N[C@@H](Cc1ccccc1)C(=O)N[C@@H](CC(=O)O)C(=O)N[C@@H](Cc1ccc(O)cc1)C(=O)N[C@@H](Cc1c[nH]c2ccccc12)C(=O)N[C@H](C(=O)N[C@@H](Cc1c[nH]c2ccccc12)C(=O)N[C@@H](CCC(=O)O)C(=O)O)C(C)C [2g] (H-RWVKRRDYRFDMGFDYWVWE-OH)

EC50 [1, 3]: 781 nM
Compound: CSCC[C@H](NC(=O)[C@H](CC(=O)O)NC(=O)CNC(=O)[C@H](CCCNC(=N)N)NC(=O)[C@H](Cc1ccc(O)cc1)NC(=O)[C@H](CC(=O)O)NC(=O)[C@H](CCCNC(=N)N)NC(=O)[C@H](CCCNC(=N)N)NC(=O)[C@@H](NC(=O)[C@@H](NC(=O)[C@H](Cc1c[nH]c2ccccc12)NC(=O)[C@@H](N)CCCNC(=N)N)C(C)C)C(C)C)C(=O)NCC(=O)N[C@@H](Cc1ccccc1)C(=O)N[C@@H](CC(=O)O)C(=O)N[C@@H](Cc1ccc(O)cc1)C(=O)N[C@@H](Cc1c[nH]c2ccccc12)C(=O)N[C@H](C(=O)N[C@@H](Cc1c[nH]c2ccccc12)C(=O)N[C@@H](CCC(=O)O)C(=O)O)C(C)C [2h] (H-RWVVRRDYRGDMGFDYWVWE-OH)

EC50 [1, 3]: 70 nM
Compound: CSCC[C@H](NC(=O)[C@H](CC(=O)O)NC(=O)[C@H](Cc1ccccc1)NC(=O)[C@H](CCCNC(=N)N)NC(=O)[C@H](Cc1ccc(O)cc1)NC(=O)[C@H](CC(=O)O)NC(=O)[C@H](CCCNC(=N)N)NC(=O)[C@H](CCCNC(=N)N)NC(=O)[C@@H](NC(=O)[C@@H](NC(=O)[C@H](Cc1c[nH]c2ccccc12)NC(=O)[C@@H](N)CCCNC(=N)N)C(C)C)C(C)C)C(=O)NCC(=O)N[C@@H](Cc1ccccc1)C(=O)N[C@@H](CC(=O)O)C(=O)N[C@@H](Cc1ccc(O)cc1)C(=O)N[C@@H](Cc1c[nH]c2ccccc12)C(=O)N[C@H](C(=O)N[C@@H](Cc1c[nH]c2ccccc12)C(=O)N[C@@H](CCC(=O)O)C(=O)O)C(C)C [2i] (H-RWVVRRDYRFDMGFDYWVWE-OH)

EC50 [1, 3]: 170 nM
Compound: CSCC[C@H](NC(=O)[C@H](CC(=O)O)NC(=O)[C@H](Cc1ccccc1)NC(=O)[C@H](CCCNC(=N)N)NC(=O)[C@H](Cc1ccc(O)cc1)NC(=O)[C@H](CC(=O)O)NC(=O)[C@H](CCCNC(=N)N)NC(=O)[C@H](CCCNC(=N)N)NC(=O)[C@H](C)NC(=O)[C@@H](NC(=O)[C@H](Cc1c[nH]c2ccccc12)NC(=O)[C@@H](N)CCCNC(=N)N)C(C)C)C(=O)NCC(=O)N[C@@H](Cc1ccccc1)C(=O)N[C@@H](CC(N)=O)C(=O)N[C@@H](Cc1ccc(O)cc1)C(=O)N[C@@H](Cc1c[nH]c2ccccc12)C(=O)N[C@H](C(=O)N[C@@H](Cc1c[nH]c2ccccc12)C(=O)N[C@@H](CCC(=O)O)C(=O)O)C(C)C [2k] (H-RWVARRDYRFDMGFNYWVWE-OH)

fold by CD signature (in words) ([2]; no hairpin exciton, no fit possible): No fold
Compound: RWCAR-RDYRFDMGFD-YWGWE [Native, peptide 'Native', no fold by CD]
